Data taken from patent US20090214580A1, “Peptide mixtures with immunomodulatory activity” (priority 2004, published 2009).

How the values were obtained:
[1] = tested on: EAE; conditions: Lewis rats; cited from earlier work
[2] = target: HLA-DR2 (Homo sapiens, UniProt P01903+P01911); conditions: cited from earlier work
[3] = tested on: PLP139-151-induced EAE; assay: Prophylaxis in PLP139-151-induced EAE; format: in vivo, SJL mice
[4] = tested on: whole human MBP; assay: Spleen cells of CM- or GA-immunized SJL mice, cross reactivity to human MBP; format: cell-based, mouse; conditions: spleen cells ten days after immunization; words
Excerpt: (§1) FIG. 4. Cross reactivity of CM-specific lines to MBP. SJL mice were immunized with CM or GA to enhance the number of CM-specific T cells to assess for cross-reactivity to MBP. Spleen cells were removed from mice ten days post immunization and set into culture (6 wells per condition) with the initial immunizing antigen or human MBP at the μg/ml concentrations shown on the X axes. *p<0.05 by Student's t test comparing proliferation in test wells to control wells without antigen.
(§2) 6-8 week old female SJL/J mice were purchased from Charles River Laboratories (Wilmington, Mass.). Spleen cells were isolated from anesthetized naïve SJL mice or 10 days after immunization with 200 μg of CM or GA in Complete Freund's Adjuvant (CFA—Difco Laboratories, Detroit, Mich.) on four spots on their back and subsequent aseptic spleen removal and red blood cell lysis using ACK lysis buffer from Biosource (Camarillo, Calif.). […] After six or three days in naïve or immunized mouse experiments respectively, 1 μCi ^3[H]-thymidine (Dupont, Wilmington, Del.) was added overnight and subsequently harvested and counted for thymidine incorporation on a Trilux liquid scintillation counter (Wallac, Gaithersburg, Md.).

[5] = tested on: multiple sclerosis; conditions: MS patients; cited from earlier work
[6] = tested on: SJL mouse spleen cells; assay: SJL mouse spleen primary proliferative responses to CM; format: cell-based; conditions: naive SJL spleen cells; 40, 10, 2.5 μg/ml; words
Description: FIG. 3: SJL mouse spleen primary proliferative responses to CM. Mouse splenic cells were seeded with 3 different doses of CM (40, 10 and 2.5 μg/ml) or GA to test for stimulatory potential of CM of (A) varying length or (B) differential anchor bias. 18 wells were seeded per antigen, and data from 2 experiments were pooled. % positive wells represents the proportion of wells with CPM at a SI greater than 2 compared to background/control wells.
as §2

[7] = tested on: spleen cells from immunized SJL mice; assay: Spleen cells of CM- or GA-immunized SJL mice, response to immunizing antigen; format: cell-based, mouse; conditions: spleen cells ten days after immunization; words
Excerpt: as §1, §2

[8] = tested on: PBMC from healthy donors and MS patients; assay: T cell proliferation of PBMC, primary and secondary (3H-thymidine); format: cell-based, human; conditions: 20 μg/ml; healthy donor and MS patient PBMC; words
Description: FIG. 1: Peptide length and composition affect the stimulatory potential of complex mixtures (CM). The stimulatory capacity of CM ranging in size and composition were tested in PBMC from nine healthy donors in both primary (A,C) and secondary (B,D) proliferations to confirm the specificity of the response. 20 μg/ml of CM or GA were each added to 18 wells and the % of positive wells (those wells with CPM having an SI greater than twice that observed in background/control wells) determined from pooled data from all donors. Figures A and B analyze the contribution of peptide length and Figures C and D the composition or MHC-bias to stimulatory potential. […]
PBMC were isolated from leukocytaphereses and seeded in complete T cell medium (TCM; Iscove's modified Dulbecco's medium [IMDM] containing 2 mM 1-glutamine, 50 μg/ml gentamycin, penicillin-streptomycin 100 U/ml each, and 5% pooled human AB serum) at 2×10^5 cells/well into 96 well U-bottom microtiter plates (Nunc, Naperville, Ill.) and stimulated with CM and GA at 20 μg/ml. After 6 days, 100 μl samples of cell suspension were removed from these plates and transferred to a new microtiter plate to which 1 μCi/well of H^3-thymdidine (Amersham Pharmacia Biotech, Piscataway, N.J.) was added and after 16 hours harvested and counted in a scintillation counter (Microbeta, Wallac, Gatihersburg, Md.). […]

## EYYKEYYKEYYK
[1]
  effect on EAE: ameliorate EAE

## Glatiramer acetate [GA]
[2]
  competition for binding of MBP (85-99) to HLA-DR2: effectively compete
[3]; 500 μg co-injected s.c. with 75 μg PLP 139-151, initial disease course, mean ± SEM
  Cumulative disease score (day 0-24): 10.2 ± 1.6
[3]; 500 μg co-injected s.c. with 75 μg PLP 139-151, remaining disease course, mean ± SEM
  Cumulative disease score (day 24-45): 13.5 ± 3.0
[3]; single 500 μg dose with PLP 139-151
  prophylactic effect on the EAE disease course: significantly reduce the overall disease score
[3]; single 500 μg dose with PLP 139-151, vs PLP alone
  reduction of cumulative disease score throughout the relapse phase: approximately one-third
[4]
  cross reactivity with whole human MBP: cross reacted
[5]
  reduction of the relapse rate in MS: about 30%
[6]
  stimulatory potential (primary proliferative responses): most frequently observed
[7]
  response to immunizing antigen (SI): very high SIs
[8]
  stimulatory potential (proliferative responses, % positive wells): most frequently observed

## poly-YEAK
[2]; compared with poly-YEA, -YEK and -YAK
  binding to DR2 molecules: better binders
